For test [1], the system named is Klebsiella pneumoniae strain KPM1026a. In words: Time-kill study. In kind it is cell-based.
The subject of test [2] is Enterobacter cloacae species complex. In words: Broth microdilution MIC (CLSI), Enterobacter cloacae. The conditions noted are these: for MIC: Enterobacter cloacae. In kind it is cell-based. From the text: Bacterial isolates were subjected to broth microdilution susceptibility testing, performed according to Clinical and Laboratory Standards Institute (CLSI) methods ([46]), using panels prepared in-house. Meropenem was purchased from Sandoz, and all other antibiotics were from Sigma-Aldrich. Xeruborbactam was synthesized at Qpex Biopharma, San Diego, CA. Avibactam was purchased from eNovation Chemicals LLC, Bridgewater, NJ, USA; zidebactam was from MedKoo Biosciences, Inc., Morrisville, NC, and nacubactam was from Advanced ChemBlocks, Hayward, CA. Durlobactam was synthesized at Acme Bioscience, Palo Alto, CA, USA.
Background: Dilution methods test growth across graded concentrations, often in twofold steps.

The subject of test [3] is major PBPs in total membrane preparations. The test is described as follows: Bocillin FL competition PBP binding assay, probe incubation at 30°C. The conditions noted are these: concentrations up to 300 μM; fluorescent probe incubation at 30°C. More on the design: species or system E. coli, K. pneumoniae, A. baumannii, and P. aeruginosa. Here is the method: Ten milliliters of overnight bacterial culture was inoculated in 1 L of LB medium and grown to an OD600 of 0.7 to 0.9. The cell pellet was washed once with 50 mL of solution containing 100 mM Na-phosphate at pH 7.0 and 100 mM NaCl and resuspended in 10 mL of the same buffer with one tablet of EDTA-free mini-protease inhibitor and 10 mg of lysozyme. Cell suspensions were incubated for 45 min at 37°C, and then 200 μL of DNase I was added along with MgSO4 (to a final concentration of 10 mM), followed by three cycles of freeze-thawing (10 min and 20 min, respectively). Four cycles of sonication at maximum power were performed next, each cycle lasting for 30 s with 1 min on ice between cycles. The cell suspension was centrifuged at 12,000 × g for 10 min at 4°C. The supernatant was collected and centrifuged at 100,000 × g for 45 min at 4°C. The pellet was washed three times with 10 mL of 100 mM Na-phosphate, pH 7.0, by resuspension and subsequent centrifugation at 100,000 × g for 10 min at 4°C. The pellet was finally resuspended in 1.5 mL of 100 mM Na-phosphate, pH 7.0, and passed several times through a Dounce homogenizer (tight pestle). […]
Five microliters of total bacterial membrane preparation was mixed with 5 μL of a test compound at a desired concentration in 100 mM Na-phosphate buffer, pH 7.0. […] IC50 values were calculated with Prism software (GraphPad).

In test [4] the test system is P. aeruginosa strain PAM1154. In words: Fluorescence microscopy, cellular morphology. It is filed as cell-based, Pseudomonas aeruginosa. Particulars: treated at 1× or 2× MIC. The method, then: Single colonies of K. pneumoniae strain KPM1026a, A. baumannii strain ATCC 17978, and P. aeruginosa strain PAM1154 were picked from LB agar plates, inoculated in cation-adjusted Mueller-Hinton broth (CA-MHB), and incubated overnight at 30°C with rolling. Overnight cultures were diluted into fresh CA-MHB and incubated at 30°C, with rolling, until they reached an OD600 of ≈0.12 to 0.15 (equivalent to ~2 × 10^8 CFU/mL). Samples were then treated with compounds and incubated at 30°C, with rolling. After 1 or 2 h of treatment, cells were collected and stained with a dye mix containing FM4-64 (1 μg/mL), DAPI (4′,6-diamidino-2-phenylindole) (2 μg/mL), and SYTOX green (0.5 μM) (Molecular Probes, Invitrogen, or Thermo Fisher Scientific). Cells were transferred onto an agarose pad containing 1.2% agarose and 20% LB medium for microscopy. Microscopy was performed as previously described ([34]).

The subject of test [5] is K. pneumoniae strain KPM1026a. Here is the method:
Beta-lactamase-negative strains of E. coli (strain ECM5497), A. baumannii (strain AB1007), and K. pneumoniae (strain KPM1026a) were used in resistance development studies. […] Colonies were incubated for 24 h at 37°C before the frequency of resistance emergence was calculated as the ratio of the number of CFU grown on the xeruborbactam-containing plate over the number of CFU recorded for xeruborbactam-free plates. Single colonies from xeruborbactam-containing plates were grown twice on a nonselective medium before their antimicrobial-resistance levels were assessed. For K. pneumoniae KPM1026a, several independent cultures were used in resistance studies.

In the next test the target is PBP3 (Klebsiella pneumoniae, UniProt A0A0H3GN85). More on the design: method as in PMID 29712652. The conditions noted are these: read-out: IC50, PBP3; value in parentheses; K. pneumoniae ATCC 43816; cited from earlier work.
Chain of PBP3 (A0A0H3GN85 entry or part of it): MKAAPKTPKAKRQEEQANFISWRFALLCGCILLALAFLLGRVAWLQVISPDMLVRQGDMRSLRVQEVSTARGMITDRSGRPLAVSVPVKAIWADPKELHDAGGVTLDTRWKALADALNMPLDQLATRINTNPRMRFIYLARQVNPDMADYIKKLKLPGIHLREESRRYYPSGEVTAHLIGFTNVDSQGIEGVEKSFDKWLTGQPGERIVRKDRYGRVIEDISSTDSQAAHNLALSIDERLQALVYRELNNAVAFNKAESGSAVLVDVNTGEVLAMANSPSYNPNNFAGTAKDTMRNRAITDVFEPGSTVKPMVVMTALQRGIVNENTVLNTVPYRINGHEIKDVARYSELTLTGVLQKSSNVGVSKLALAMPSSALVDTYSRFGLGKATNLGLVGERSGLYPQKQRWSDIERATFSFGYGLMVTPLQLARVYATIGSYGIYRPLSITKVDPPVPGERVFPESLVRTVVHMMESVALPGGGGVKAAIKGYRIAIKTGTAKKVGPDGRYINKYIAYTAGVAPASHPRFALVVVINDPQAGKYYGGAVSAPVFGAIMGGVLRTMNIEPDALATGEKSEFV
[6] abbreviates: Enterobacter cloacae species complex, 45 isolates.

This is an account of results in article PMC9578396, “Intrinsic Antibacterial Activity of Xeruborbactam In Vitro: Assessing Spectrum and Mode of Action” (Antimicrobial Agents and Chemotherapy, 2022).

Converted amounts (≈) assume the structure as drawn. Where two headings read alike, the source gives them in different places.

As usually defined, the MIC50 is the lowest concentration that inhibits either 50% of growth or 50% of the strains tested, depending on the study. The term MIC90 denotes the lowest concentration that inhibits either 90% of growth or 90% of the strains tested, depending on the study. A higher MIC90 goes with weaker potency. As a reminder, the MIC is the lowest concentration that inhibits growth of the organism. Turning to `O=C(O)c1c(F)ccc2c1OB(O)[C@@H]1C[C@H]21` [Xeruborbactam], the kinetics of killing entry in test [1] is on record as “time-dependent, concentration-independent bacterial killing”. For the same compound, the MIC50 in test [2] (setting [6]) was determined as 16 µg/mL (≈ 72.1 µM). This compound also gave an MIC90 in test [2] (setting [6]) of 32 µg/mL (≈ 144 µM). In test [2] (setting [6]), this compound returned an MIC range of 4 to 64 µg/mL. In addition, the MIC in test [2] (Enterobacter cloacae species complex isolates, read-out: highest MIC observed) stood at 64 µg/mL (≈ 288 µM); in test [2] (clinical isolate ECL1057, OmpK35 FN, OmpK36 NF, read-out: MIC) it was 64 µg/mL (≈ 288 µM); in test [2] (clinical isolate ECL1079, OmpK35 NF, OmpK36 NF, read-out: MIC), 64 µg/mL (≈ 288 µM); in test [2] (clinical isolate ECL1126, OmpK35 FN, OmpK36 FN, read-out: MIC) it was 16 µg/mL (≈ 72.1 µM); in test [2] (clinical isolate ECL1131, OmpK35 NF, OmpK36 FN, read-out: MIC), 16 µg/mL (≈ 72.1 µM). The “interaction with PBPs” value in test [3] is “No detectable interactions”. For the same compound, in test [4], the cellular morphology entry was “filamentation and bulge formation at midcell and eventual cell lysis from the midpoint”. Also, the “frequency of resistance (FOR)” value in test [5] (at 2× MIC) is reported as 2 × 10^−8; in test [5] (at 4× MIC) it was < 3 × 10^−9.
For orientation: IC50 means the concentration that inhibits the measured activity by half. On to `C[C@@H](O)[C@H]1C(=O)N2C(C(=O)O)=C(S[C@@H]3CN[C@H](C(=O)N(C)C)C3)[C@H](C)[C@H]12` [Meropenem], for which, on PBP3, the IC50 is 310 nM.
